Measured values reported in patent US20040138272A1, “1,4-Substituted cyclohexane derivatives” (priority 2002, published 2004).
Entries after “also recorded” stand apart in the source; their conditions may differ. Read-outs that look alike come from different tables or passages of the source. Each block holds one molecule with its values, some of them ahead of it.

Legend:
[1] = target: glycogen synthatase kinase 3 beta (GSKB) (Homo sapiens, UniProt P49841); test: GSK B kinase activity of compounds (FIG. 10); type: biochemical; details: 10 uM
Chain of glycogen synthatase kinase 3 beta (GSKB) (P49841 whole entry): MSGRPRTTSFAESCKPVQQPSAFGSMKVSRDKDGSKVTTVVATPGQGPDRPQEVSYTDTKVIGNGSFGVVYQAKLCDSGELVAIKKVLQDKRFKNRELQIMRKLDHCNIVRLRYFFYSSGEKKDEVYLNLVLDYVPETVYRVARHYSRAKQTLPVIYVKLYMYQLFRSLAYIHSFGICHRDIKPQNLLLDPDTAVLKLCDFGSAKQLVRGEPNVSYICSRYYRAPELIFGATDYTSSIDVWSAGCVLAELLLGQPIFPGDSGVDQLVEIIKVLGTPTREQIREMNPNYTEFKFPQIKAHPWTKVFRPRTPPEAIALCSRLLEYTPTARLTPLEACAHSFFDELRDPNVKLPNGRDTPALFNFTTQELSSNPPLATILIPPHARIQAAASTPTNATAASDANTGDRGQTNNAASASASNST

[2] = target: PRK2 (Homo sapiens, UniProt Q16513); details: cited from earlier work
Chain of PRK2 (Q16513 whole entry): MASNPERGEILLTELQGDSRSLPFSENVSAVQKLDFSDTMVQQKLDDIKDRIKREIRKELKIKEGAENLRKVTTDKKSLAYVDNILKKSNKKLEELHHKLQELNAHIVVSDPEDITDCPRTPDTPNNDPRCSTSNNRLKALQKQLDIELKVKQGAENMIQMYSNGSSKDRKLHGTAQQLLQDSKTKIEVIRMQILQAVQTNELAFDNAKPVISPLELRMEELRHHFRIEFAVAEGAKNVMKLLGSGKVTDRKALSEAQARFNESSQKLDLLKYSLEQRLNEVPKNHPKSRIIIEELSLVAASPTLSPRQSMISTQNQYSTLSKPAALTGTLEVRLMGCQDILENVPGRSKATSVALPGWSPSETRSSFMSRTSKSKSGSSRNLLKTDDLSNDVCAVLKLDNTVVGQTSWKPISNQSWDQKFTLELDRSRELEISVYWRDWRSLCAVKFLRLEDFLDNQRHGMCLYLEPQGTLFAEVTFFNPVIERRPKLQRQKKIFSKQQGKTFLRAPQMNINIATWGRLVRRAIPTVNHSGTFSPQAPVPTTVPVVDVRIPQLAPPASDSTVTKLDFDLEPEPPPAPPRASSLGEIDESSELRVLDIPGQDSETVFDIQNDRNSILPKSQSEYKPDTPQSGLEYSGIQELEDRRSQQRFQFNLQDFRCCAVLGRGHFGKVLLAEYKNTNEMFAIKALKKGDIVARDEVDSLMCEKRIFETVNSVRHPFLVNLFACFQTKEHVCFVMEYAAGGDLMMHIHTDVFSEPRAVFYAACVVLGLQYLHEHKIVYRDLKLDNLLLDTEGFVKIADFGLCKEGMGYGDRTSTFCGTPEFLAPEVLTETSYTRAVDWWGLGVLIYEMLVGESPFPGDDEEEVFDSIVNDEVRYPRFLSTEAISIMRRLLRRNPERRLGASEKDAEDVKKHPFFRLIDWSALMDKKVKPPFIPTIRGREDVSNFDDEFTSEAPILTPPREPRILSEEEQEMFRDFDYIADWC

[3] = target: MSK1 (Homo sapiens, UniProt O75582); details: cited from earlier work
Chain of MSK1 (O75582 whole entry, species assumed): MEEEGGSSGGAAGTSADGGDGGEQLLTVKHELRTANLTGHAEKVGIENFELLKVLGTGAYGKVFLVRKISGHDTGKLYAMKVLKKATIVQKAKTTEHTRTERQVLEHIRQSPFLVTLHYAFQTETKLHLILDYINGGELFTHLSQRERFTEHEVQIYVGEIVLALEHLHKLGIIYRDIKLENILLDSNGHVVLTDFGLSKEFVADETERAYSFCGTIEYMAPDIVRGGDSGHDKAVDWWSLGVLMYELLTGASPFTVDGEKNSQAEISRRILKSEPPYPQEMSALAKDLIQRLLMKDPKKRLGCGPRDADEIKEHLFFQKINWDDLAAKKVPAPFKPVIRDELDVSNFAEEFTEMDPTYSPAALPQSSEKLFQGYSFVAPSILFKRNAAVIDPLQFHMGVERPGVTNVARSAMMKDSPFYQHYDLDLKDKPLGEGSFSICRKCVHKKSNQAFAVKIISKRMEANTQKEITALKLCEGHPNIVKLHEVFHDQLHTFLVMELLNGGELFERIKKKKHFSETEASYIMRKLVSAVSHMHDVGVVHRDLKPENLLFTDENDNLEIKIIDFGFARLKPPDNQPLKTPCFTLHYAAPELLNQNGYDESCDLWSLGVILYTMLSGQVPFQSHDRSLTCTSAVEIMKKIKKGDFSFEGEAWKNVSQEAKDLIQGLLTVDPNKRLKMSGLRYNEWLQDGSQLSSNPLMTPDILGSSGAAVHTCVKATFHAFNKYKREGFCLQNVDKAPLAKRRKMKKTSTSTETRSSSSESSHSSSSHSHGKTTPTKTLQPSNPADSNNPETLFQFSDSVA

[4] = target: MAPKAP-K1b (Oryctolagus cuniculus, UniProt A0A5F9C4L9); details: cited from earlier work
Chain of MAPKAP-K1b (A0A5F9C4L9 1-740): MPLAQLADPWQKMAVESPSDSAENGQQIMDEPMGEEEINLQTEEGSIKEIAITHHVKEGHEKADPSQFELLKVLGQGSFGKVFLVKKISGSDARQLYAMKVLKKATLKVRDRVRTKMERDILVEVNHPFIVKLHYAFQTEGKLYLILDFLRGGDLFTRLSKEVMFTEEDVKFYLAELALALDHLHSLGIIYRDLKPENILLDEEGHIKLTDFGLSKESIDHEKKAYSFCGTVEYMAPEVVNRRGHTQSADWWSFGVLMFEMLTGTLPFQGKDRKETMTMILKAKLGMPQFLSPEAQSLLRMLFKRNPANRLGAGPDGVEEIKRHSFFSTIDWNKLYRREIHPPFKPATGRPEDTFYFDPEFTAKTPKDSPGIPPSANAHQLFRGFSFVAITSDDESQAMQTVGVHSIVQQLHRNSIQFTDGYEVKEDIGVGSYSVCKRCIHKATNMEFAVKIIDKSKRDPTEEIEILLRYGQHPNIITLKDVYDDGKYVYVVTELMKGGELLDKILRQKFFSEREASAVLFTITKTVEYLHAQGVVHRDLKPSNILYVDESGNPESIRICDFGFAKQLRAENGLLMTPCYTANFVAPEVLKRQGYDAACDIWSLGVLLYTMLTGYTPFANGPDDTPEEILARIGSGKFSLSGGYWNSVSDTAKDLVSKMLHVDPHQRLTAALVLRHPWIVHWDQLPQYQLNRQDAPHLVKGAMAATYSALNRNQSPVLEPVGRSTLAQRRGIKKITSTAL

[5] = system: PHK; details: cited from earlier work
[6] = rat, in vivo, po, 30 mg/kg; cited from earlier work
[7] = cited from earlier work
[8] = system: NG108-15 neuronal cell line; test: Rapid bioassay of neurite growth in NG108-15 cells; type: cell-based; details: NG108 cells, 3.1 to 31 μM
Procedure: When neurons are placed on inhibitory substrates in tissue culture, the neurons remain rounded. When an effective Rho kinase inhibitor is added to the neurons, the neurons are able to grow neurites on myelin substrates. The time that it takes for neurons to grow neurites after the addition of a Rho kinase inhibitor is about the same as the time that it takes for neurons to grow neurites if the neurons had been plated on growth permissive substrate such as laminin or polylysine, which time is typically 1 to 2 days in cell culture. An assessment of resulting neurite growth can be scored by visual means. If needed, a quantitative assessment of neurite growth can be performed. This involves measuring after a time such as 1 to 2 days the neurite length a) in control cultures where neurons are plated on myelin substrates and left untreated with Rho kinase inhibitor for such time, b) in positive control cultures, wherein for example neurons are plated on polylysine but left untreated with Rho kinase inhibitor for such time, and c) in cultures analogous to a) and b) that are treated with different concentrations of a Rho kinase inhibitor for such time. […] In this assay, NG108 cells are plated on plastic in the presence or absence of the test substance (a Rho kinase inhibitor). […] The relative efficacy can be assessed by fixing the cultures 5 hours after plating, and counting the number of cells that have grown neurites.
A rapid bioassay is used to determine the effect of a test compounds on the stimulation of neurite growth in vitro. A neuronal cell line, NG108-15 (ATCC HB-12317), is maintained in culture in Dulbecco's minimal essential medium (DMEM) supplemented with 10% fetal bovine serum, Penicillin/Streptomycin and HAT supplement (Gibco/BRL). For the bioassay, the cells are collected by trypsinisation and ressuspended in DMEM supplemented with 5% FBS, Penicillin/Streptomycin, HAT supplement and 0.25 mg/ml cAMP, adjusted to 1.0×10^4 cells/ml. The cells are plated into wells of a 96 well plate at 100 μls (1000 cells)/well. Cells are incubated 4 h at 37° C. and 5% CO2 in presence of small molecules or cethrin at a concentration of 1000 cells per well of a 96-wells plate in a final volume of 100 ul.
After incubation, cells are fixed by adding […] 16% PFA and 5.4 μls 2.5% glutaraldehyde to the media in each well. The wells are stained with cresyl violet 0.05% , 100 μls/well for 15 min. Cells with neurites (length≧one cell body) are counted using an inverted light microscope. The % neurite outgrowth is determined by calculating the number of cells with neurites over the total number of counted cells.

[9] = system: PC12 cells on MAG substrates; test: Bioassay of PC12 neurite growth on growth inhibitory myelin-associated glycoprotein (MAG) substrates; type: cell-based; details: Dihydrochloride; for neurite outgrowth on inhibitory MAG substrates (FIG. 4): PC12 cells, 0.31, 3.1 or 31 uM
Procedure: PC-12 cells (ATCC CRL-1721) typically extend neurites in response to NGF, but when plated on inhibitory substrates, this outgrowth is inhibited and the cells remain round. We tested the ability of the new compound to grow neurites when plated on inhibitory substrates.
We used PC12 cells obtained from the American Type Culture Collection. PC12 cells were grown in Dulbecco's modified eagle's medium (DMEM) with 10% horse serum and 5% fetal bovine serum. To test compounds for the ability to overcome growth inhibition, PC12 cells were collected by detaching with trypsin-EDTA (0.05%), then resuspended in DMEM, 1% FBS, and 50 ng/ml nerve growth factor before plating on MAG substrates. MAG used for substrates was purified from myelin after extraction in 1% octylglucoside and separation by ion exchange chromatography (McKerracher et al. 1994, Neuron 13:805-811). Test substrates were prepared as uniform substrates in 96-well plates by drying overnight in the laminar flow hood (Nalge Nunc, Naperville, Ill.). Plates were precoated with polylysine (100 μg/ml) for 3 hours at 37° C., then washed and dried approx. 1 hour. MAG was prepared as a substrate by drying down 8 μg of protein overnight. After plating on the MAG substrate, the cells were grown at 37 C. for two days in the presence or absence of test compound (BA1003, BA1016, BA1017) to allow neurite growth. Polylysine substrates were used as a positive control. Quantitative analysis of neurite outgrowth was with the aid of Northern Eclipse software (Empix Imaging, Mississauga, Ontario). Data analysis and statistics were with Microsoft Excel.
Referring to FIG. 4 there is shown a graph illustrative of experiments performed in triplicate testing the ability of BA-1003, BA-1016 and BA-1017 to overcome growth inhibition by MAG. PC12 cells were plated on MAG substrates alone (MAG) or MAG substrates in the presence of 0.31 uM, 3.1 um or 31 um concentrations of the test compound. The numbers of neurons that grew neurites were scored, and are shown as the percentage of neurite growth.

[10] = target: T1, ROCK II (Rattus norvegicus, UniProt Q62868); test: ROCK II kinase assay with [γ-32P] ATP and myelin basic protein substrate (FIG. 3); type: biochemical; details: 100 μM ATP, 30 min at 30° C.
T1 construct: purchased Upstate (Lake Placid, N.Y.)
T1 sequence (Q62868 11-550 limits assumed): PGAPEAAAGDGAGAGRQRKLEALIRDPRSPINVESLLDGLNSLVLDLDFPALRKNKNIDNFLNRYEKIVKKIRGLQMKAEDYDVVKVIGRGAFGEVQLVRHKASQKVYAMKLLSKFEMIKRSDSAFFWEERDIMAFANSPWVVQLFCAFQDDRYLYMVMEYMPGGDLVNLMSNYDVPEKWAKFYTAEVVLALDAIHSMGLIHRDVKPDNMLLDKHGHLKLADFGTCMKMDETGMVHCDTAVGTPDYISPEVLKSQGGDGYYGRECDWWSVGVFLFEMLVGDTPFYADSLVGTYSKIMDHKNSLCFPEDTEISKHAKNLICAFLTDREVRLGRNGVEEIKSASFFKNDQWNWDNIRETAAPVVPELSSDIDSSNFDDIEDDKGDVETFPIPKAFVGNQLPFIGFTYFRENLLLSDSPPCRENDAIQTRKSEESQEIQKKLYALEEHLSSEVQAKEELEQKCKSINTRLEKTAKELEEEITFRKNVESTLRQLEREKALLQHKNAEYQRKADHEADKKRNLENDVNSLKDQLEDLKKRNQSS
Source text: The ability of compounds to inhibit ROK activity may be tested in a cell-free assay system using recombinant ROK, radiaoactive ATP, and Myelin basic Protein (MBP). MBP is a highly phosphorylated protein, is inexpensive to buy in purified form, is phosphorylated by ROK, and is used as the assay substrate for phosphorylation. Recombinant ROK has been prepared from a number of sources. Overexpression in mammalian cells provides a convenient, easily renewed source of ROK activity. Measurement of Rho-associated kinase (ROK) activity is important to determine the potency of novel inhibitors. MBP is a substrate for ROK and a number of other protein kinases, making it useful both to quantitate ROK activity and to indicate the potency and specificity of novel inhibitors for ROK. […]
ROCK II was assayed in 20 mM MOPS, pH 7.2, 25 mM β-glycerophosphate, 5 mM EGTA, 1 mM sodium orthovanadate, 1 mM dithiothreitol with dephosphorylated myelin basic protein (MBP, 0.2 mg/ml) as substrate with or without BA-1016 or BA-1017. […] Assays were initiated by adding Mg^2+/ATP and terminated by spotting 40 μl of each reaction onto phosphocellulose paper (P81 paper, Whatman), followed by washes in 0.75% phosphoric acid to remove ATP and then dried, put in scintillation cocktail and counted to measure ^32P incorporation. Radioactivity is measured using a scintillation counter. […]

activity towards GSKB (FIG. 10) [1]: can exert activity
SMILES: C=CC[C@@H](NC)[C@H]1CC[C@H](C(=O)Nc2ccncc2)CC1.Cl.Cl (relative stereo) [BA-1028, (R,S)-trans-4-[(N′-methyl)-but-3′-en-1′-amino]-N-(4″-pyridyl)cyclohexane Carboxamide Dihydrochloride]

activity towards GSKB (FIG. 10) [1]: can exert activity
SMILES: C=CC[C@@H](NCc1ccccc1)[C@H]1CC[C@H](C(=O)Nc2ccncc2)CC1.Cl.Cl (relative stereo) [BA-1029, (R,S)-trans-4-[(N′-benzyl)-but-3′-en-1′-amino]-N-(4″-pyridyl)cyclohexane Carboxamide Dihydrochloride]

SMILES: C[C@@H](N)[C@H]1CC[C@H](C(=O)Nc2ccncc2)CC1.Cl.Cl (relative stereo) [Y-27632, (R)-trans-4-(Ethan-1′-amino)-N-(4″-pyridyl)cyclohexane Carboxamide Dihydrochloride]
inhibition of PRK2 [2]: inhibits
inhibition of MSK1 [3]: inhibits
inhibition of MAPKAP-K1b [4]: inhibits
inhibition of PHK [5]: inhibits
toxicity [6]: not toxic
blood pressure ([7]; hypertensive rats): reduces blood pressure
blood pressure ([7]; normal rats): does not affect blood pressure

SMILES: C=CC[C@@H](N)[C@H]1CC[C@H](C(=O)Nc2ccncc2)CC1.Cl.Cl (stereo in doubt) [BA-1003]
neurite outgrowth (FIG. 2) [8]: promote neurite outgrowth
neurite outgrowth on inhibitory MAG substrates (FIG. 4) [9]: can promote neurite outgrowth; also recorded: able to overcome growth inhibition by MAG

inhibition of ROCKII activity (FIG. 3) [10]: inhibition of ROCKII activity
SMILES: C=CC[C@H](N)[C@H]1CC[C@H](C(=O)Nc2ccncc2)CC1.Cl.Cl (stereo in doubt) [BA-1017]
neurite outgrowth (FIG. 2) [8]: promote neurite outgrowth
neurite outgrowth on MAG substrates at the lowest concentration tested ([9]; PC12 cells, 0.31 uM): better neurite outgrowth; also recorded: effective
neurite outgrowth on inhibitory MAG substrates (FIG. 4) [9]: can promote neurite outgrowth; also recorded: able to overcome growth inhibition by MAG

activity towards GSKB (FIG. 10) [1]: can exert activity
SMILES: Cl.Cl.O=C(Nc1ccncc1)[C@H]1CC[C@H](NNCC(c2ccccc2)c2ccccc2)CC1 [BA-1034, trans-4-{N′-[2′,2′-(Diphenyl)ethyl]hydrazino}-N-(4′″-pyridyl)cyclohexane Carboxamide Dihydrochloride]

activity towards GSKB (FIG. 10) [1]: can exert activity
SMILES: Cl.Cl.O=C(Nc1ccncc1)[C@H]1CC[C@H](NNCc2ccc(OCc3ccccc3)cc2)CC1 [BA-1035, trans-4-{N′-[4′-(Benzyloxy)benzyl]hydrazino}-N-(4′″-pyridyl)cyclohexane Carboxamide Dihydrochloride]

activity towards GSKB (FIG. 10) [1]: can exert activity
SMILES: Cl.Cl.O=C(Nc1ccncc1)[C@H]1CC[C@H](NNCC2CCCCC2)CC1 [BA-1036, trans-4-{N′-[(Cyclohexyl)methyl]hydrazino}-N-(4′″-pyridyl)cyclohexane Carboxamide Dihydrochloride]

activity towards GSKB (FIG. 10) [1]: can exert activity
SMILES: Cl.Cl.O=C(Nc1ccncc1)[C@H]1CC[C@H](NNC/C=C/c2ccccc2)CC1 [BA-1038, 1,4-trans-2′,3′-trans-4-{N′-[3′-(Phenyl)prop-2′-enyl]hydrazino}-N-(4′″-pyridyl)cyclohexane Carboxamide Dihydrochloride]
